Assay results reported in PubChem BioAssay (NCI).
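Assay format: 96-well plates, 48-hour exposure. Abbreviation: GI50, concentration required for 50% inhibition of growth. At the TGI there is no net growth.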

Experiments:
Test in all cases: growth of human tumour cells (NCI), 48 h
786-0 renal = tested on: 786-0 renal
A498 renal = tested on: A498 renal
A549 NSCLC = tested on: A549 NSCLC
ACHN renal = tested on: ACHN renal
BT-549 breast = tested on: BT-549 breast
CAKI-1 renal = tested on: CAKI-1 renal
CCRF-CEM leukemia = tested on: CCRF-CEM leukemia
COLO 205 colon = tested on: COLO 205 colon
DU-145 prostate = tested on: DU-145 prostate
EKVX NSCLC = tested on: EKVX NSCLC
HCC-2998 colon = tested on: HCC-2998 colon
HCT-116 colon = tested on: HCT-116 colon
HCT-15 colon = tested on: HCT-15 colon
HL-60(TB) leukemia = tested on: HL-60(TB) leukemia
HOP-62 NSCLC = tested on: HOP-62 NSCLC
HOP-92 NSCLC = tested on: HOP-92 NSCLC
HS 578T breast = tested on: HS 578T breast
HT29 colon = tested on: HT29 colon
IGROV1 ovarian = tested on: IGROV1 ovarian
K-562 leukemia = tested on: K-562 leukemia
KM12 colon = tested on: KM12 colon
LOX IMVI melanoma = tested on: LOX IMVI melanoma
M14 melanoma = tested on: M14 melanoma
MALME-3M melanoma = tested on: MALME-3M melanoma
MCF7 breast = tested on: MCF7 breast
MDA-MB-231 breast = tested on: MDA-MB-231 breast
MDA-MB-435 = tested on: MDA-MB-435
MOLT-4 leukemia = tested on: MOLT-4 leukemia
NCI-H226 lung = tested on: NCI-H226 lung
NCI-H23 lung = tested on: NCI-H23 lung
NCI-H460 lung = tested on: NCI-H460 lung
NCI-H522 lung = tested on: NCI-H522 lung
NCI/ADR-RES ovarian = tested on: NCI/ADR-RES ovarian
OVCAR-3 ovarian = tested on: OVCAR-3 ovarian
OVCAR-4 ovarian = tested on: OVCAR-4 ovarian
OVCAR-5 ovarian = tested on: OVCAR-5 ovarian
OVCAR-8 ovarian = tested on: OVCAR-8 ovarian
PC-3 prostate = tested on: PC-3 prostate
RPMI-8226 leukemia = tested on: RPMI-8226 leukemia
RXF 393 renal = tested on: RXF 393 renal
SF-268 CNS = tested on: SF-268 CNS
SF-295 CNS = tested on: SF-295 CNS
SF-539 CNS = tested on: SF-539 CNS
SK-MEL-2 melanoma = tested on: SK-MEL-2 melanoma
SK-MEL-28 melanoma = tested on: SK-MEL-28 melanoma
SK-MEL-5 melanoma = tested on: SK-MEL-5 melanoma
SK-OV-3 ovarian = tested on: SK-OV-3 ovarian
SN12C renal = tested on: SN12C renal
SNB-19 CNS = tested on: SNB-19 CNS
SNB-75 CNS = tested on: SNB-75 CNS
SR leukemia = tested on: SR leukemia
SW-620 colon = tested on: SW-620 colon
T-47D breast = tested on: T-47D breast
TK-10 renal = tested on: TK-10 renal
U251 CNS = tested on: U251 CNS
UACC-257 melanoma = tested on: UACC-257 melanoma
UACC-62 melanoma = tested on: UACC-62 melanoma
UO-31 renal = tested on: UO-31 renal

## CC(=O)OCC1OC(OC2=C(CC=C(C)C)C(=O)c3ccccc3C2=O)C(OC(C)=O)C(OC(C)=O)C1OC(C)=O (stereo unspecified)
786-0 renal
  GI50: 14.1 µM
  TGI: 27.3 µM
A498 renal
  GI50: > 33.6 µM
  TGI: > 56.9 µM
A549 NSCLC
  GI50: 10.4 µM
  TGI: 40 µM
ACHN renal
  GI50: 3.16 µM
  TGI: 10.1 µM
BT-549 breast
  GI50: 2.25 µM
  TGI: 6.95 µM
CAKI-1 renal
  GI50: 6.55 µM
  TGI: 17.7 µM
CCRF-CEM leukemia
  GI50: 3.83 µM
  TGI: > 100 µM
COLO 205 colon
  GI50: 11.5 µM
  TGI: 24.2 µM
DU-145 prostate
  GI50: 10.9 µM
  TGI: 22.9 µM
EKVX NSCLC
  GI50: 2.81 µM
  TGI: 11.6 µM
HCC-2998 colon
  GI50: 8.05 µM
  TGI: 20.5 µM
HCT-116 colon
  GI50: 1.6 µM
  TGI: 3.05 µM
HCT-15 colon
  GI50: 3.91 µM
  TGI: 18.1 µM
HL-60(TB) leukemia
  GI50: 2.91 µM
  TGI: 6.62 µM
HOP-62 NSCLC
  GI50: 18 µM
  TGI: 33.6 µM
HOP-92 NSCLC
  GI50: 1.52 µM
  TGI: 3.77 µM
HS 578T breast
  GI50: 5.21 µM
  TGI: > 32.6 µM
HT29 colon
  GI50: 15.3 µM
  TGI: 36.7 µM
IGROV1 ovarian
  GI50: 3.47 µM
  TGI: 8.21 µM
K-562 leukemia
  GI50: 2.72 µM
  TGI: > 30.4 µM
KM12 colon
  GI50: 2.26 µM
  TGI: 4.89 µM
LOX IMVI melanoma
  GI50: 2.58 µM
  TGI: 8.01 µM
M14 melanoma
  GI50: 5.67 µM
  TGI: 18.2 µM
MALME-3M melanoma
  GI50: 4.96 µM
  TGI: 19.6 µM
MCF7 breast
  GI50: 2.06 µM
  TGI: 4.73 µM
MDA-MB-231 breast
  GI50: 2.63 µM
  TGI: 8.41 µM
MDA-MB-435
  GI50: 2.9 µM
  TGI: 9.09 µM
MOLT-4 leukemia
  GI50: 2.5 µM
  TGI: 6.59 µM
NCI-H226 lung
  GI50: 5.58 µM
  TGI: 28.3 µM
NCI-H23 lung
  GI50: 4.13 µM
  TGI: 16.9 µM
NCI-H460 lung
  GI50: 4.12 µM
  TGI: 15.5 µM
NCI-H522 lung
  GI50: 1.88 µM
  TGI: 4.85 µM
NCI/ADR-RES ovarian
  GI50: 3.07 µM
  TGI: 10.2 µM
OVCAR-3 ovarian
  GI50: 1.93 µM
  TGI: 3.58 µM
OVCAR-4 ovarian
  GI50: 2.31 µM
  TGI: 6.7 µM
OVCAR-5 ovarian
  GI50: 4.57 µM
  TGI: 16.2 µM
OVCAR-8 ovarian
  GI50: 3.23 µM
  TGI: 11.9 µM
PC-3 prostate
  GI50: 1.97 µM
  TGI: 6.08 µM
RPMI-8226 leukemia
  GI50: 2.03 µM
  TGI: 5.25 µM
RXF 393 renal
  GI50: 3.76 µM
  TGI: 8.32 µM
SF-268 CNS
  GI50: 4.23 µM
  TGI: 15.5 µM
SF-295 CNS
  GI50: 3.67 µM
  TGI: 12.7 µM
SF-539 CNS
  GI50: 2.84 µM
  TGI: 9.9 µM
SK-MEL-2 melanoma
  GI50: 2.46 µM
  TGI: 5.67 µM
SK-MEL-28 melanoma
  GI50: 5.22 µM
  TGI: 16.9 µM
SK-MEL-5 melanoma
  GI50: 2.24 µM
  TGI: 5.15 µM
SK-OV-3 ovarian
  GI50: 12.9 µM
  TGI: 25.9 µM
SN12C renal
  GI50: 7.01 µM
  TGI: 23.9 µM
SNB-19 CNS
  GI50: 6.28 µM
  TGI: 16.2 µM
SNB-75 CNS
  GI50: 3.35 µM
  TGI: 11.4 µM
SR leukemia
  GI50: 3.55 µM
  TGI: 51.1 µM
SW-620 colon
  GI50: 2.78 µM
  TGI: 9.18 µM
T-47D breast
  GI50: 1.93 µM
  TGI: 4.24 µM
TK-10 renal
  GI50: 15.1 µM
  TGI: 29.8 µM
U251 CNS
  GI50: 2.92 µM
  TGI: 11.5 µM
UACC-257 melanoma
  GI50: 3.75 µM
  TGI: 10.3 µM
UACC-62 melanoma
  GI50: 2.45 µM
  TGI: 7.15 µM
UO-31 renal
  GI50: 2.68 µM
  TGI: 10.7 µM
